Source: ChEMBL document CHEMBL4346687, “Design, synthesis and biological evaluation of novel uracil derivatives bearing 1, 2, 3-triazole moiety as thymidylate synthase (TS) inhibitors and as potential antitumor drugs” (Eur J Med Chem, 2019)
pIC50: −log10 of the molar value. One block for each molecule: values may come before it. Calls of active or inactive are those of the source. The calls are words filed in the database; no cut-off is given here.

Experiments:
Thymidylate synthase = Thymidylate synthase (Homo sapiens, UniProt P04818); experiment: Inhibition of human thymidylate synthase using dUMP as substrate by spectrophotometric method
A549 [1] = experiment: Antiproliferative activity against human A549 cells assessed as reduction in cell viability at 1.25 uM after 24 hrs by MTT assay; format: functional; settings: A549, 24 h
[2] = Selectivity index, ratio of CC50 for cytotoxicity against human IOSE-80 cells to IC50 for antiproliferative activity against human OVCAR3 cells; settings: IOSE-80 cells (CC50) versus OVCAR3 cells (IC50)
A549 [3] = experiment: Antiproliferative activity against human A549 cells assessed as reduction in cell viability at 0.625 uM after 24 hrs by MTT assay; format: functional; settings: A549, 24 h
A549 [4] = experiment: Antiproliferative activity against human A549 cells assessed as reduction in cell viability at 5 uM after 24 hrs by MTT assay; format: functional; settings: A549, 24 h
OVCAR-3 = experiment: cells; settings: Homo sapiens, OVCAR-3, 24 h
Description: Antiproliferative activity against human OVCAR3 cells assessed as reduction in cell viability after 24 hrs by MTT assay

[5] = Cytotoxicity against human IOSE-80 cells assessed as reduction in cell viability after 24 hrs by MTT assay; format: cell-based; settings: for CC50 at 24 h: IOSE-80 cells; for CC50: 24 h
SGC-7901 = experiment: cells; settings: Homo sapiens, SGC-7901, 24 h
Description: Antiproliferative activity against human SGC7901 cells assessed as reduction in cell viability after 24 hrs by MTT assay

[6] = Selectivity index, ratio of CC50 for cytotoxicity against human L02 cells to IC50 for antiproliferative activity against human HepG2 cells; settings: L02 cells (CC50) versus HepG2 cells (IC50)
[7] = Selectivity index, ratio of CC50 for cytotoxicity against human HPAEpic cells to IC50 for antiproliferative activity against human A549 cells; settings: HPAEpic cells (CC50) versus A549 cells (IC50)
[8] = Selectivity index, ratio of CC50 for cytotoxicity against human GES-1 cells to IC50 for antiproliferative activity against human SGC7901 cells; settings: GES-1 cells (CC50) versus SGC7901 cells (IC50)
[9] = (§1) Cytotoxicity against human L02 cells assessed as reduction in cell viability after 24 hrs by MTT assay; format: cell-based; settings: L02 cells
A549 [10] = experiment: Antiproliferative activity against human A549 cells assessed as reduction in cell viability at 20 uM after 24 hrs by MTT assay; format: functional; settings: A549, 24 h
[11] = Cytotoxicity against human HPAEpic cells assessed as reduction in cell viability after 24 hrs by MTT assay; format: cell-based; settings: for CC50 at 24 h: HPAEpic cells; for CC50: 24 h
A549 [12] = experiment: Antiproliferative activity against human A549 cells assessed as reduction in cell viability at 10 uM after 24 hrs by MTT assay; format: functional; settings: A549, 24 h
HepG2 = experiment: cells; settings: Homo sapiens, HepG2, 24 h
Description: Antiproliferative activity against human HepG2 cells assessed as reduction in cell viability after 24 hrs by MTT assay

[13] = (§2) Cytotoxicity against human GES-1 cells assessed as reduction in cell viability after 24 hrs by MTT assay; format: cell-based, GES1; settings: GES-1 cells
L02 = experiment: as §1; format: cell-based; settings: l02, 24 h
A549 [14] = experiment: cells; settings: Homo sapiens, A549, 24 h
Description: Antiproliferative activity against human A549 cells assessed as reduction in cell viability after 24 hrs by MTT assay

GES1 = experiment: as §2; format: cell-based; settings: ges1, 24 h
A549 [15] = experiment: Cell cycle arrest in human A549 cells assessed as increase in G0/G1 phase at 0.5 to 1.5 uM after 24 hrs by propidium iodide staining based flow cytometric analysis; format: functional
A549 [16] = experiment: Induction of late apoptosis in human A549 cells after 24 hrs by Annexin V-FITC/propidium iodide staining based flow cytometric analysis; format: functional, cell-based
A549 [17] = experiment: Induction of apoptosis in human A549 cells assessed as early apoptotic cells at 1 uM after 24 hrs by Annexin V-FITC/propidium iodide staining based flow cytometric analysis (reference value: 0.6%); format: functional
A549 [18] = experiment: Induction of apoptosis in human A549 cells assessed as decrease in ratio of Bcl-2/Bax at 0.5 to 1.5 uM after 24 hrs by Western blot analysis; format: functional, cell-based
A549 [19] = experiment: Induction of apoptosis in human A549 cells assessed as necrotic cells at 0.5 uM after 24 hrs by Annexin V-FITC/propidium iodide staining based flow cytometric analysis (reference value: 0.1%); format: functional
A549 [20] = experiment: Induction of apoptosis in human A549 cells assessed as early apoptotic cells at 0.5 uM after 24 hrs by Annexin V-FITC/propidium iodide staining based flow cytometric analysis (reference value: 0.6%); format: functional
A549 [21] = experiment: Induction of apoptosis in human A549 cells assessed as late apoptotic cells at 0.5 uM after 24 hrs by Annexin V-FITC/propidium iodide staining based flow cytometric analysis (reference value: 1.1%); format: functional
A549 [22] = experiment: Induction of apoptosis in human A549 cells assessed as late apoptotic cells at 1 uM after 24 hrs by Annexin V-FITC/propidium iodide staining based flow cytometric analysis (reference value: 1.1%); format: functional
A549 [23] = experiment: Induction of apoptosis in human A549 cells assessed as viable cells at 1 uM after 24 hrs by Annexin V-FITC/propidium iodide staining based flow cytometric analysis (reference value: 98.2%); format: functional; settings: A549, 24 h, read-out: Activity
A549 [24] = experiment: Induction of apoptosis in human A549 cells assessed as down regulation of Bcl-2 protein expression at 0.5 to 1.5 uM after 24 hrs by Western blot analysis; format: functional, cell-based
A549 [25] = experiment: Induction of apoptosis in human A549 cells assessed as increase in cleaved caspase-3 protein level at 0.5 to 1.5 uM after 24 hrs by Western blot analysis; format: functional, cell-based
A549 [26] = experiment: Cell cycle arrest in human A549 cells assessed as decrease in G2/M phase at 0.5 to 1.5 uM after 24 hrs by propidium iodide staining based flow cytometric analysis; format: functional
A549 [27] = experiment: Induction of apoptosis in human A549 cells assessed as up regulation of Bax protein expression at 0.5 to 1.5 uM after 24 hrs by Western blot analysis; format: functional, cell-based
A549 [28] = experiment: Cell cycle arrest in human A549 cells assessed as decrease in S phase at 0.5 to 1.5 uM after 24 hrs by propidium iodide staining based flow cytometric analysis; format: functional
A549 [29] = experiment: Induction of apoptosis in human A549 cells assessed as viable cells at 0.5 uM after 24 hrs by Annexin V-FITC/propidium iodide staining based flow cytometric analysis (reference value: 98.2%); format: functional; settings: A549, 24 h, read-out: Activity
A549 [30] = experiment: Induction of apoptosis in human A549 cells assessed as necrotic cells at 1 uM after 24 hrs by Annexin V-FITC/propidium iodide staining based flow cytometric analysis (reference value: 0.1%); format: functional
A549 [31] = experiment: Induction of apoptosis in human A549 cells assessed as viable cells at 1.5 uM after 24 hrs by Annexin V-FITC/propidium iodide staining based flow cytometric analysis (reference value: 98.2%); format: functional; settings: A549, 24 h, read-out: Activity
A549 [32] = experiment: Cell cycle arrest in human A549 cells assessed as decrease in Cyclin D protein expression at 0.5 to 1.5 uM after 24 hrs by Western blot analysis; format: functional, cell-based
A549 [33] = experiment: Induction of apoptosis in human A549 cells assessed as activation of caspase-3 protein level at 0.5 to 1.5 uM after 24 hrs by Western blot analysis; format: functional, cell-based
A549 [34] = experiment: Induction of apoptosis in human A549 cells assessed as late apoptotic cells at 1.5 uM after 24 hrs by Annexin V-FITC/propidium iodide staining based flow cytometric analysis (reference value: 1.1%); format: functional
A549 [35] = experiment: Induction of apoptosis in human A549 cells assessed as early apoptotic cells at 1.5 uM after 24 hrs by Annexin V-FITC/propidium iodide staining based flow cytometric analysis (reference value: 0.6%); format: functional
A549 [36] = experiment: Cell cycle arrest in human A549 cells assessed as decrease in Cyclin E protein expression at 0.5 to 1.5 uM after 24 hrs by Western blot analysis; format: functional, cell-based
A549 [37] = experiment: Induction of early apoptosis in human A549 cells after 24 hrs by Annexin V-FITC/propidium iodide staining based flow cytometric analysis; format: functional, cell-based
A549 [38] = experiment: Induction of apoptosis in human A549 cells assessed as necrotic cells at 1.5 uM after 24 hrs by Annexin V-FITC/propidium iodide staining based flow cytometric analysis (reference value: 0.1%); format: functional

Sequence of Thymidylate synthase (P04818 whole entry): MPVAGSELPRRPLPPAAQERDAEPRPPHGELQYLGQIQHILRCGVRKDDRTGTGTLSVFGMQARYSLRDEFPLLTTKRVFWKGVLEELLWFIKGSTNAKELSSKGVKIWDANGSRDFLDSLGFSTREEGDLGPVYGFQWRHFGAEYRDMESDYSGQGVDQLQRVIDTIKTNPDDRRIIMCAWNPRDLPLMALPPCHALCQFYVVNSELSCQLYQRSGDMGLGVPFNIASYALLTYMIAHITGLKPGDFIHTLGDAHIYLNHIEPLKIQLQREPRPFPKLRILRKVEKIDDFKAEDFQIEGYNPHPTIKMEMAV

SMILES: O=c1[nH]cc(S(=O)(=O)Nc2ccc(-c3cn(-c4cccc(F)c4)nn3)cc2)c(=O)[nH]1
- pIC50 (OVCAR-3): < 4.70
- CC50 [5]: Non-Toxic
- pIC50 (SGC-7901): < 4.70
- CC50 (L02): Non-Toxic
- CC50 [11]: Non-Toxic
- pIC50 (HepG2): < 4.70
- pIC50 (A549 [14]): 5.00
- CC50 (GES1): Non-Toxic

SMILES: Cc1ccccc1-n1cc(-c2ccc(NS(=O)(=O)c3c[nH]c(=O)[nH]c3=O)cc2)nn1
- pIC50 (OVCAR-3): 5.14
- CC50 [5]: Non-Toxic
- pIC50 (SGC-7901): 4.87
- CC50 (L02): Non-Toxic
- CC50 [11]: Non-Toxic
- pIC50 (HepG2): 4.84
- pIC50 (A549 [14]): 5.50
- CC50 (GES1): Non-Toxic

SMILES: O=c1[nH]cc(S(=O)(=O)Nc2ccccc2-c2cn(-c3ccc(Cl)cc3)nn2)c(=O)[nH]1
- Activity (A549 [15]): Dose-dependent effect
- Activity (A549 [16]): Dose-dependent effect
- inhibition at 1.25 µM (A549 [1]): 55.5%
- Activity (A549 [17]): 3.5%
- Activity (A549 [18]): Active
- inhibition at 0.625 µM (A549 [3]): 32%
- Activity (A549 [19]): 0.1%
- inhibition at 5 µM (A549 [4]): 75.5%
- pIC50 (OVCAR-3): 5.76
- Activity (A549 [20]): 1.3%
- CC50 at 24 h [5]: 16.5 µM
- pIC50 (SGC-7901): 5.57
- Activity (A549 [21]): 2.1%
- Activity (A549 [22]): 5.6%
- viability at 1 µM (A549 [23]): 89.7%
- Activity (A549 [24]): Active
- Activity (A549 [25]): Active
- Activity (A549 [26]): Dose-dependent effect
- Activity (A549 [27]): Active
- Activity (A549 [28]): Dose-dependent effect
- CC50 at 24 h [9]: 16.8 µM
- viability at 0.5 µM (A549 [29]): 96.5%
- Activity (A549 [30]): 1.2%
- viability at 1.5 µM (A549 [31]): 84.2%
- inhibition at 20 µM (A549 [10]): 80.2%
- Activity (A549 [32]): Dose-dependent effect
- Activity (A549 [33]): Active
- CC50 at 24 h [11]: 20.4 µM
- inhibition at 10 µM (A549 [12]): 77.3%
- pIC50 (HepG2): 5.74
- Activity (A549 [34]): 7.1%
- Activity (A549 [35]): 4.1%
- pIC50 (A549 [14]): 5.93
- Activity (A549 [36]): Dose-dependent effect
- Activity (A549 [37]): Dose-dependent effect
- Activity (A549 [38]): 4.5%
- CC50 at 24 h [13]: 26.7 µM

SMILES: O=c1[nH]cc(S(=O)(=O)Nc2ccccc2-c2cn(-c3ccc(F)cc3)nn2)c(=O)[nH]1
- pIC50 (OVCAR-3): < 4.70
- CC50 [5]: Non-Toxic
- pIC50 (SGC-7901): < 4.70
- CC50 (L02): Non-Toxic
- CC50 [11]: Non-Toxic
- pIC50 (HepG2): < 4.70
- pIC50 (A549 [14]): 5.19
- CC50 (GES1): Non-Toxic

Further lines, with some results ahead:

- pIC50 (Thymidylate synthase): 5.69
- pIC50 (OVCAR-3): 5.36
- pIC50 (SGC-7901): 5.16
- pIC50 (HepG2): 5.43
SMILES: Nc1nc2[nH]cc(CCc3ccc(C(=O)N[C@@H](CCC(=O)O)C(=O)O)cc3)c2c(=O)[nH]1 [PEMETREXED DISODIUM]
- inhibition at 1.25 µM (A549 [1]): 39.9%
- selectivity ratio [2]: 3.56
- inhibition at 0.625 µM (A549 [3]): 27.2%
- inhibition at 5 µM (A549 [4]): 47.1%
- CC50 at 24 h [5]: 15.5 µM
- selectivity ratio [6]: 8.23
- selectivity ratio [7]: 7.71
- selectivity ratio [8]: 3.25
- CC50 at 24 h [9]: 30.7 µM
- inhibition at 20 µM (A549 [10]): 74.7%
- CC50 at 24 h [11]: 25.4 µM
- inhibition at 10 µM (A549 [12]): 58.7%
- CC50 at 24 h [13]: 22.6 µM

- pIC50 (OVCAR-3): 4.75
- pIC50 (SGC-7901): 4.72
- pIC50 (HepG2): 4.74
- pIC50 (A549 [14]): 5.14
SMILES: O=c1[nH]cc(S(=O)(=O)Nc2ccc(-c3cn(-c4ccccc4)nn3)cc2)c(=O)[nH]1
- CC50 [5]: Non-Toxic
- CC50 (L02): Non-Toxic
- CC50 [11]: Non-Toxic
- CC50 (GES1): Non-Toxic

- pIC50 (OVCAR-3): < 4.70
- pIC50 (SGC-7901): < 4.70
- pIC50 (HepG2): < 4.70
- pIC50 (A549 [14]): < 4.70
SMILES: O=c1[nH]cc(S(=O)(=O)Nc2cccc(-c3cn(-c4ccc(F)cc4)nn3)c2)c(=O)[nH]1
- CC50 [5]: Non-Toxic
- CC50 (L02): Non-Toxic
- CC50 [11]: Non-Toxic
- CC50 (GES1): Non-Toxic
